One substance from patent US20080249123A1, “WORTMANNIN-RAPAMYCIN CONJUGATE AND USES THEREOF” (Wyeth, priority 2007, published 2008) can be followed below.

In one series the test system is LNCap. Put plainly: In vitro cell culture growth assay (MTS), LNCap. The note with it: prostate line, 3 days after drug treatment. In kind it is cell-based, Human. As for the experimental part: (§1) Human tumor cell lines (Table 3) include prostate lines LNCap and PC3MM2, breast lines MDA468, MCF7, renal line HTB44 (A498), colon line HCT116, and ovarian line OVCAR3. Cells were plated in 96-well culture plates.
(§2) One day following plating, the following conjugates (inhibitors) were added to cells: • Compound A 42,17′-linked wortmannin-adipate-rapamycin conjugate, diethylamine adduct • Compound B 42,17′-linked wortmannin-adipate-rapamycin conjugate. • Compound C 42,17′-linked wortmannin-succinate-rapamycin conjugate, N,N,N′-trimethyl 1,3-propanediamine adduct • Compound D 42,17′-linked wortmannin-adipate-rapamycin conjugate, diallylamine adduct • Compound E 42,17′-linked wortmannin-adipate-rapamycin conjugate, N,N,N′-trimethyl 1,3-propanediamine adduct • Compound F 42,17′-linked wortmannin-suberate-rapamycin conjugate, N,N,N′-trimethyl 1,3-propanediamine adduct.
(§3) Three days after drug treatment, viable cell densities were determined by metabolic conversion (by viable cells) of the MTS dye (3-(4,5-dimethylthiazol-2-yl)-5-(3 carboxymethoxyphenyl)-2-(4-sulfophenyl)-2H-tetrazolium, inner salt), a well established cell proliferation assay. The assays were performed using an assay kit purchased from Promega Corp. (Madison, Wis.) following the protocol supplied with the kit. The MTS assay results were read in a 96-well plate reader by measuring absorbance at 490 nm. The effect of each treatment was calculated as percent of control growth relative to the vehicle-treated cells grown in the same culture plate. The drug concentration that conferred 50% inhibition of growth was determined as IC50 (μg/mL). See, Table 3.

Another series deals with PC3MM2. Put plainly: In vitro cell culture growth assay (MTS), PC3MM2. In kind it is cell-based, Human. The note with it: prostate line, 3 days after drug treatment. As for the experimental part:
as §1, §2, §3

The test system of another series is MDA468. Put plainly: In vitro cell culture growth assay (MTS), MDA468. Type of series: cell-based, Human. To be noted: breast line, 3 days after drug treatment. On the procedure: as §1, §2, §3
For another series, the system named is MCF7. Briefly: In vitro cell culture growth assay (MTS), MCF7. The note with it: breast line, 3 days after drug treatment. Type of series: cell-based, Human. On the procedure: as §1, §2, §3
The next series has as its system HTB44 (A498). Put plainly: In vitro cell culture growth assay (MTS), HTB44 (A498). To be noted: renal line, 3 days after drug treatment. Type of series: cell-based, Human. As for the experimental part:
as §1, §2, §3

Another series relates to HCT116. Put plainly: In vitro cell culture growth assay (MTS), HCT116. In kind it is cell-based, Human. The note with it: colon line, 3 days after drug treatment. On the procedure:
as §1, §2, §3

The test system of a further series is OVCAR3. Put plainly: In vitro cell culture growth assay (MTS), OVCAR3. In kind it is cell-based, Human. The note with it: ovarian line, 3 days after drug treatment. On the procedure: as §1, §2, §3
In a further series the test system is U87MG Glioma Xenografts. Put plainly: Xenograft tumor efficacy study, U87MG glioma in nude mice. In kind it is in vivo. As for the experimental part: Female nude mice at 10 weeks of age were inoculated subcutaneously on the flank with 200 μL U87MG (human gliobastoma) tumor cell suspension. U87MG cells were suspended in full growth media and were implanted at 10 million cells per mouse. Mice were staged when tumors reached approximately 200 mm^3 in sizes. Tumor bearing mice at staging (day 0) were randomized into treatment groups (n=10). […]
The growth of tumors was monitored twice a week for the duration of the experiment. Tumor size was measured using sliding vernier calipers, and the tumor mass was calculated using the formula (length×Width^2)/2.
The experimental methods for drug preparation, dosing route, regimen, etc (listed in the Table 4) were similar to the experiments presented in the Figures. The data in Table 4 and the Figures were derived from multiple and completely different experiments. Within Table 4, the data contained separate experiments.

Series [1] relates to HT29 colon tumor xenograph. In kind it is in vivo. To be noted: 1× weekly for four rounds. As for the experimental part: The effect of 42,17′-linked wortmannin-suberate-rapamycin conjugate, N,N,N′-trimethyl 1,3-propanediamine adduct, prepared as described in Example 4 was studied in a model of human colon cancer.
The 42,17′-linked wortmannin-suberate-rapamycin conjugate, N,N,N′-trimethyl 1,3-propanediamine adduct (▪, 15 mg/kg), rapamycin (▴, 10 mg/kg), 17-hydroxywortmannin N,N,N′-trimethyl 1,3-propanediamine adduct (▾, 5 mg/kg) and a physical combination of rapamycin (10 mg/kg) and 17-hydroxywortmannin N,N,N′-trimethyl 1,3-propanediamine adduct (5 mg/kg) were dosed 1× weekly for four rounds against a HT29 colon tumor xenograph. Vehicle served as a negative control ([…]).

Series [2] relates to A498 renal cell carcinoma xenograph. Briefly: In vivo anticancer efficacy in HTB44/A498 renal cell carcinoma model. The note with it: conjugate i.v. 1× weekly 15 mg/kg, 2 rounds; Intron A ip 3× weekly 0.5 mU, 2 weeks. As for the experimental part: This study utilized a model of renal cancer performed as previously described. See, e.g., Yu K, et al., PWT-458, A Novel Pegylated-17-Hydroxywortmannin, Inhibits Phosphatidylinositol 3-Kinase Signaling and Suppresses Growth of Solid Tumors. Cancer Biol Ther. May 28, 2005; 4(5).
On day 23 the Vehicle group ([…]) was redosed with a combination 42,17′-linked wortmannin-suberate-rapamycin N,N,N′-trimethyl 1,3-propanediamine adduct (30 mg/kg) and the Avastin® drug (200 μg) for five rounds. On day 43, the 42,17′-linked wortmannin-suberate-rapamycin conjugate, N,N,N′-trimethyl 1,3-propanediamine adduct group (30 mg/kg) and the Avastin® drug group (200 μg) were redosed with a combination of 42,17′-linked wortmannin-suberate-rapamycin conjugate, N,N,N′-trimethyl 1,3-propanediamine adduct and the Avasting drug for three rounds.

For the substance “42,17′-linked wortmannin-suberate-rapamycin conjugate, N,N,N′-trimethyl 1,3-propanediamine adduct [Compound F]”, the “IC50 inhibition of tumor cell growth, LNCap” value in the series with LNCap came to 0.06 µg/mL. In the series on PC3MM2, the “IC50 inhibition of tumor cell growth, PC2MM2” value was 1.00 µg/mL. For the same substance, the “IC50 inhibition of tumor cell growth, MDA468” value with MDA468 came to 0.50 µg/mL. In addition, the “IC50 inhibition of tumor cell growth, MCF7” value with MCF7 is 0.24 µg/mL. In the series with HTB44 (A498), the “IC50 inhibition of tumor cell growth, HTB44” value worked out at 2.10 µg/mL. Further, the “IC50 inhibition of tumor cell growth, HCT116” value in the series on HCT116 stood at 12.75 µg/mL. The “IC50 inhibition of tumor cell growth, OVCAR3” value with OVCAR3 stood at 6.48 µg/mL. Moreover, in the series with U87MG Glioma Xenografts (15 mg/kg, 1× weekly for 2 rounds), the “antitumor efficacy versus physical combination (FIG. 3)” value was “at least as active as the physical combination”. The “efficacy after a single dose (FIG. 4)” value with U87MG Glioma Xenografts (single dose 30, 45 and 60 mg/kg) is given as “effective in the intermittent regimen”. Also, the “tolerability (FIG. 5)” value in [1] (15 mg/kg, in contrast to physical combination) is “better tolerated”. Also, the “tumor reduction (FIG. 5)” value in series [1] (conjugate 15 mg/kg, combination rapamycin 10 mg/kg + 17-hydroxywortmannin adduct 5 mg/kg) is on record as “significant tumor reduction”. The “antitumor activity (FIG. 6)” value in series [2] was “increased antitumor activity as compared to vehicle and Intron® A reagent alone”.
